32 compounds from US11292796B2 (SIGNAL PHARMACEUTICALS, LLC, priority 2008, dated 2022) can be followed below.

A word on the IC50: it is the point on the concentration scale where inhibition reaches its midpoint.

The target of the test is T1, mTOR (Homo sapiens, UniProt P42345).
T1 construct: purchased Invitrogen PR8683A
T1 sequence (P42345 1360-2549 limits assumed): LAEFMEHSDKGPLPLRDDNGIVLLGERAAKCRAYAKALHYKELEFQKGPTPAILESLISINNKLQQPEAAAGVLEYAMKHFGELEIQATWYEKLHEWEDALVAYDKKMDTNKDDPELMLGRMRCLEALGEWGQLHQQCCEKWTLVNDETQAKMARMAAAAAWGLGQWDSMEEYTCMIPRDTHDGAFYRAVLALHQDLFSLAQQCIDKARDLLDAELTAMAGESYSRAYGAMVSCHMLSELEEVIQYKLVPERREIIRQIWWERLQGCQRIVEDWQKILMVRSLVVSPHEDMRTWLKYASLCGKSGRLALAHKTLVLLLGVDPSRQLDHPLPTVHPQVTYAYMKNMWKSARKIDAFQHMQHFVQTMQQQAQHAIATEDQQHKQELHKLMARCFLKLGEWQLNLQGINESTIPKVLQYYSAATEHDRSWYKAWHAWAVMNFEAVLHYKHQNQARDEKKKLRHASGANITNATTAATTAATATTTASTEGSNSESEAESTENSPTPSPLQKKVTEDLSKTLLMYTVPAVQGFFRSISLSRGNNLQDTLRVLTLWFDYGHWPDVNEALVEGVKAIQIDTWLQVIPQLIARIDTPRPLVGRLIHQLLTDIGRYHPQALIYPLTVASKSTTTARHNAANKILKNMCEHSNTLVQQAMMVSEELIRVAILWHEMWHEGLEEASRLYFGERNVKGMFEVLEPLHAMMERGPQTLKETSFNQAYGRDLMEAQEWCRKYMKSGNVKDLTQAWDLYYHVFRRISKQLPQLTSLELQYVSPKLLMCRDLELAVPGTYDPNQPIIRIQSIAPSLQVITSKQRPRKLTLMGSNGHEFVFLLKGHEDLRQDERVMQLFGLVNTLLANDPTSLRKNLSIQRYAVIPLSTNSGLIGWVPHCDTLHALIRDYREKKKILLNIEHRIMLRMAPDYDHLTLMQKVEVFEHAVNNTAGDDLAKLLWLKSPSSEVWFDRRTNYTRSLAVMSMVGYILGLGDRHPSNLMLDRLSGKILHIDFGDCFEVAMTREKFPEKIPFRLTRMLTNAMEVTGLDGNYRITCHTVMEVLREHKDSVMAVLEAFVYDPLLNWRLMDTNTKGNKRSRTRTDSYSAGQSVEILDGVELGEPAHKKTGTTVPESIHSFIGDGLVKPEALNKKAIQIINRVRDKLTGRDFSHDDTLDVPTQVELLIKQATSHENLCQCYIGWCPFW
The test is described as follows: mTOR HTR-FRET assay. The class given is biochemical. As to conditions: read-out: Act. Level (IC50 in mTor HTR-FRET assay). A digest of the protocol: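 Test compounds, taken from 10 mM DMSO stocks and diluted, were mixed with mTOR enzyme (0.200 μg/mL) in Tris buffer pH 7.4 with 100 mM NaCl, 0.1% Tween-20 and 1 mM DTT. ATP/substrate addition initiated the reaction, alongside compound-free controls.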
Turning to `Cc1cc(-c2nnc[nH]2)ccc1-c1cnc2c(n1)N1CCN(C)CC1C(=O)N2` (centres unmarked) [Example 118, 9-(4-(4H-1,2,4-triazol-3-yl)-2-methylphenyl)-3-methyl-6,11,4a-trihydropiperazino[1,2-e]pyrazino[2,3-b]pyrazin-5-one], the IC50 is 500 to 1000 nM.
Take `O=C1Nc2ncc(-c3ccc(-c4nnc[nH]4)cc3)nc2N2CCOCC12` (centres unmarked) [Example 119, 9-(4-(4H-1,2,4-triazol-3-yl)phenyl)-6,11,4a-trihydromorpholino[4,3-e]pyrazino[2,3-b]pyrazin-5-one]: the IC50 lay in the range of 0.005 to 250 nM.
The result for `Cc1cc(-c2nnc[nH]2)ccc1-c1cnc2c(n1)N1CCCCC1C(=O)N2` (centres unmarked) [Example 120, 9-(4-(4H-1,2,4-triazol-3-yl)-2-methylphenyl)-6,11,4a-trihydropiperidino[1,2-e]pyrazino[2,3-b]pyrazin-5-one] reads 0.005 to 250 nM; that for `CC(C)(O)c1ccc(-c2cnc3c(n2)N(CCN2CCOCC2)CC(=O)N3)cn1` [Example 123, 6-(6-(2-hydroxypropan-2-yl)pyridin-3-yl)-4-(2-morpholinoethyl)-3,4-dihydropyrazino[2,3-b]pyrazin-2(1H)-one], 1000 to 10000 nM.
For `CC(C)(O)c1ccc(-c2cnc3c(n2)N(CCc2ccccc2)CC(=O)N3)cn1` [Example 124, 6-(6-(2-hydroxypropan-2-yl)pyridin-3-yl)-4-phenethyl-3,4-dihydropyrazino[2,3-b]pyrazin-2(1H)-one], the IC50 was in the range of 250 to 500 nM.
Then `CC(C)(O)c1ccc(-c2cnc3c(n2)N([C@@H]2CCOC2)CC(=O)N3)cn1` [Example 129, (R)-6-(6-(2-hydroxypropan-2-yl)pyridin-3-yl)-4-(tetrahydrofuran-3-yl)-3,4-dihydropyrazino[2,3-b]pyrazin-2(1H)-one], with 500 to 1000 nM; and `CC(C)(O)c1ccc(-c2cnc3c(n2)N([C@H]2CCOC2)CC(=O)N3)cn1` [Example 130, (S)-6-(6-(2-hydroxypropan-2-yl)pyridin-3-yl)-4-(tetrahydrofuran-3-yl)-3,4-dihydropyrazino[2,3-b]pyrazin-2(1H)-one], with 500 to 1000 nM; and `C[C@H]1C(=O)Nc2ncc(-c3ccc(C(C)(C)O)nc3)nc2N1CCC1CCOCC1` [Example 132, (S)-6-(6-(2-hydroxypropan-2-yl)pyridin-3-yl)-3-methyl-4-(2-(tetrahydro-2H-pyran-4-yl)ethyl)-3,4-dihydropyrazino[2,3-b]pyrazin-2(1H)-one], with 0.005 to 250 nM.
As for `CC(C)(O)c1ccc(-c2cnc3c(n2)N2CCOCC2C(=O)N3)cn1` (centres unmarked) [Example 133, 9-[6-(1-hydroxy-isopropyl)-3-pyridyl]-6,11,4a-trihydromorpholino[4,3-e]pyrazino[2,3-b]pyrazin-5-one], the IC50 is 500 to 1000 nM.
Then `Cc1cc(-c2cnc3c(n2)N(Cc2cccc(C(F)(F)F)c2)CC(=O)N3)cc2nc(N)[nH]c12` [Example 136, 6-(2-amino-7-methyl-1H-benzo[d]imidazol-5-yl)-4-(3-(trifluoromethyl)benzyl)-3,4-dihydropyrazino[2,3-b]pyrazin-2(1H)-one], with 500 to 1000 nM; and `CC(C)(O)c1ccc(-c2cnc3c(n2)N(Cc2cccc(C(F)(F)F)c2)CC(=O)N3)cn1` [Example 137, 6-(6-(2-hydroxypropan-2-yl)pyridin-3-yl)-4-(3-(trifluoromethyl)benzyl)-3,4-dihydropyrazino[2,3-b]pyrazin-2(1H)-one], with 0.005 to 250 nM; and `Cc1cc(-c2nnc[nH]2)ccc1-c1cnc2c(n1)N1CCOCC1C(=O)N2` (centres unmarked) [Example 138, 9-(4-(4H-1,2,4-triazol-3-yl)-2-methylphenyl)-6,11,4a-trihydromorpholino[4,3-e]pyrazino[2,3-b]pyrazin-5-one], with 0.005 to 250 nM.
`CNc1nc2c(C)cc(-c3cnc4c(n3)N(CCC3CCOCC3)CC(=O)N4)cc2[nH]1` [Example 139, 6-(4-methyl-2-(methylamino)-1H-benzo[d]imidazol-6-yl)-4-(2-(tetrahydro-2H-pyran-4-yl)ethyl)-3,4-dihydropyrazino[2,3-b]pyrazin-2(1H)-one]: the IC50 was 0.005 to 250 nM.
The result for `Cc1cc(-c2nnc[nH]2)ccc1-c1cnc2c(n1)N1CCCC1C(=O)N2` (centres unmarked) [Example 140, 8-(4-(4H-1,2,4-triazol-3-yl)-2-methylphenyl)-5,10,3a-trihydropyrazino[2,3-b]pyrrolidino[1,2-e]pyrazin-4-one] reads 0.005 to 250 nM; that for `CCN1CC(=O)Nc2ncc(-c3ccc(-c4nnc[nH]4)cc3)nc21` [Example 141, 6-(4-(4H-1,2,4-triazol-3-yl)phenyl)-4-ethyl-3,4-dihydropyrazino[2,3-b]pyrazin-2(1H)-one], 250 to 500 nM; that for `O=C1CN(CC2CCOCC2)c2nc(-c3ccc(-c4nnc[nH]4)cc3)cnc2N1` [Example 142, 6-(4-(4H-1,2,4-triazol-3-yl)phenyl)-4-((tetrahydro-2H-pyran-4-yl)methyl)-3,4-dihydropyrazino[2,3-b]pyrazin-2(1H)-one], 0.005 to 250 nM.
Take `COCCN1CC(=O)Nc2ncc(-c3ccc(-c4nnc[nH]4)cc3)nc21` [Example 144, 6-(4-(4H-1,2,4-triazol-3-yl)phenyl)-4-(2-methoxyethyl)-3,4-dihydropyrazino[2,3-b]pyrazin-2(1H)-one]: the concentration for half-maximal inhibition (IC50) lay in the range of 0.005 to 250 nM.
Then `O=C1CN(Cc2cccc(C(F)(F)F)c2)c2nc(-c3ccc(-c4nnc[nH]4)cc3)cnc2N1` [Example 145, 6-(4-(4H-1,2,4-triazol-3-yl)phenyl)-4-(3-(trifluoromethyl)benzyl)-3,4-dihydropyrazino[2,3-b]pyrazin-2(1H)-one], with 0.005 to 250 nM; and `Cc1cc(-c2cnc3c(n2)N(CCC2CCOCC2)CC(=O)N3)cc2[nH]cnc12` [Example 147, 6-(4-methyl-1H-benzo[d]imidazol-6-yl)-4-(2-(tetrahydro-2H-pyran-4-yl)ethyl)-3,4-dihydropyrazino[2,3-b]pyrazin-2(1H)-one], with 500 to 1000 nM; and `CO[C@H]1CC[C@H](CN2C(=O)CNc3ncc(-c4cc(F)c(-c5nc[nH]n5)cc4C)nc32)CC1` [Example 150, 7-(5-fluoro-2-methyl-4-(1H-1,2,4-triazol-3-yl)phenyl)-1-((trans-4-methoxycyclohexyl)methyl)-3,4-dihydropyrazino[2,3-b]pyrazin-2(1H)-one], with 0.005 to 250 nM.
In the case of `CO[C@H]1CC[C@@H](N2C(=O)CNc3ncc(-c4ccc(-c5nc[nH]n5)nc4)nc32)CC1` [Example 151, 7-(6-(1H-1,2,4-triazol-3-yl)pyridin-3-yl)-1-(cis-4-methoxycyclohexyl)-3,4-dihydropyrazino[2,3-b]pyrazin-2(1H)-one], the IC50 is 0.005 to 250 nM.
In the case of `O=C1CNc2ncc(-c3c[nH]c4ncccc34)nc2N1CCC1CCOCC1` [Example 152, 7-(1H-pyrrolo[2,3-b]pyridin-3-yl)-1-(2-(tetrahydro-2H-pyran-4-yl)ethyl)-3,4-dihydropyrazino[2,3-b]pyrazin-2(1H)-one], the IC50 fell in the range of 0.005 to 250 nM.
Turning to `CO[C@H]1CC[C@@H](CN2C(=O)CNc3ncc(-c4cc(F)c(-c5nc[nH]n5)cc4C)nc32)CC1` [Example 153, 7-(5-fluoro-2-methyl-4-(1H-1,2,4-triazol-3-yl)phenyl)-1-((cis-4-methoxycyclohexyl)methyl)-3,4-dihydropyrazino[2,3-b]pyrazin-2(1H)-one], the IC50 lay in the range of 0.005 to 250 nM.
The result for `CCN1C(=O)CNc2ncc(-c3ccc4[nH]ccc4n3)nc21` [Example 154, 1-ethyl-7-(1H-pyrrolo[3,2-b]pyridin-5-yl)-3,4-dihydropyrazino[2,3-b]pyrazin-2(1H)-one] reads 1000 to 10000 nM; that for `CO[C@H]1CC[C@@H](CN2C(=O)CNc3ncc(-c4ccc(-c5nc[nH]n5)nc4)nc32)CC1` [Example 155, 7-(6-(1H-1,2,4-triazol-3-yl)pyridin-3-yl)-1-((cis-4-methoxycyclohexyl)methyl)-3,4-dihydropyrazino[2,3-b]pyrazin-2(1H)-one], 0.005 to 250 nM.
The result for `O=C1CNc2ncc(-c3cccc4[nH]cnc34)nc2N1CCC1CCOCC1` [Example 156, 7-(1H-benzo[d]imidazol-4-yl)-1-(2-(tetrahydro-2H-pyran-4-yl)ethyl)-3,4-dihydropyrazino[2,3-b]pyrazin-2(1H)-one] reads 500 to 1000 nM; that for `O=C1CNc2ncc(-c3ccnc4[nH]ccc34)nc2N1CCC1CCOCC1` [Example 157, 7-(1H-pyrrolo[2,3-b]pyridin-4-yl)-1-(2-(tetrahydro-2H-pyran-4-yl)ethyl)-3,4-dihydropyrazino[2,3-b]pyrazin-2(1H)-one], 0.005 to 250 nM; that for `CO[C@H]1CC[C@H](CN2C(=O)CNc3ncc(-c4ccc(-c5nc[nH]n5)nc4)nc32)CC1` [Example 158, 7-(6-(1H-1,2,4-triazol-3-yl)pyridin-3-yl)-1-((trans-4-methoxycyclohexyl)methyl)-3,4-dihydropyrazino[2,3-b]pyrazin-2(1H)-one], 0.005 to 250 nM.
Regarding `O=C1CNc2ncc(-c3ccc(-c4nc[nH]n4)nc3)nc2N1C[C@H]1CC[C@H](O)CC1` [Example 159, 7-(6-(1H-1,2,4-triazol-3-yl)pyridin-3-yl)-1-((trans-4-hydroxycyclohexyl)methyl)-3,4-dihydropyrazino[2,3-b]pyrazin-2(1H)-one], the IC50 lay within 0.005 to 250 nM.
Turning to `O=C1CNc2ncc(-c3ccc(-c4nc[nH]n4)nc3)nc2N1[C@H]1CC[C@@H](O)CC1` [Example 160, 7-(6-(1H-1,2,4-triazol-3-yl)pyridin-3-yl)-1-(cis-4-hydroxycyclohexyl)-3,4-dihydropyrazino[2,3-b]pyrazin-2(1H)-one], the IC50 lay within 0.005 to 250 nM.
The result for `Cc1cc(-c2nc[nH]n2)c(F)cc1-c1cnc2c(n1)N([C@H]1CC[C@@H](O)CC1)C(=O)CN2` [Example 161, 7-(5-fluoro-2-methyl-4-(1H-1,2,4-triazol-3-yl)phenyl)-1-(cis-4-hydroxycyclohexyl)-3,4-dihydropyrazino[2,3-b]pyrazin-2(1H)-one] reads 0.005 to 250 nM; that for `O=C1CNc2ncc(-c3ccc(-c4nc[nH]n4)nc3)nc2N1C1CCOCC1` [Example 162, 7-(6-(1H-1,2,4-triazol-3-yl)pyridin-3-yl)-1-(tetrahydro-2H-pyran-4-yl)-3,4-dihydropyrazino[2,3-b]pyrazin-2(1H)-one], 0.005 to 250 nM.
